In patent US5821239A (priority 1996, dated 1998):
Where two headings read alike, the source gives them in different places.

What was measured:
[1] = system: Scopolamine Induced Memory Deficit (mice); settings: mouse, in vivo, sc
[2] = biological target: Brain AChE (acetylcholinesterase, rat striatum) (Rattus norvegicus, UniProt P37136); assay: biochemical; parameters: species or system rat (male Wistar)
Sequence of Brain AChE (acetylcholinesterase, rat striatum) (P37136 32-614): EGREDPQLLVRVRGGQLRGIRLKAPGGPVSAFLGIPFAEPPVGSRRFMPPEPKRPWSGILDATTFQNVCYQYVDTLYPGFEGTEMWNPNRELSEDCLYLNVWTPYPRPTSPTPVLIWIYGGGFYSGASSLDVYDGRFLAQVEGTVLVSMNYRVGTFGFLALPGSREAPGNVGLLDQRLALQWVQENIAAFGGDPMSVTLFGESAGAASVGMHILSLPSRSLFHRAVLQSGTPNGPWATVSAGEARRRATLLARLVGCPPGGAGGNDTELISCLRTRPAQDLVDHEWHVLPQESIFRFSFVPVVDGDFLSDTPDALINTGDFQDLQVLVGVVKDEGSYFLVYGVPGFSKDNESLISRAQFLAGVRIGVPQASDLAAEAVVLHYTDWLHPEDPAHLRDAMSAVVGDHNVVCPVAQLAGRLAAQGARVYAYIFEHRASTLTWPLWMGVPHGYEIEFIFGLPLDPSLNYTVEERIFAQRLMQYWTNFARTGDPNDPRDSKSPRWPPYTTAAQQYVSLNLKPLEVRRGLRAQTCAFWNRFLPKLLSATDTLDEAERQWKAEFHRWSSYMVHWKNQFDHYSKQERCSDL

SMILES	% of Animals with Scopolamine Induced Memory Deficit Reversal ([1]; 0.1 mg/kg)	% of Animals with Scopolamine Induced Memory Deficit Reversal ([1]; 0.3 mg/kg)	IC50 [2]
CCNC(=O)Oc1cnccc1N=CN(C)C [4-[[(Dimethylamino)methylene]amino]-3-pyridinol ethylcarbamate]	20.0%	21.4%	9.37 µM
CNC(=O)Oc1cnccc1N=CN(C)C [4-[[(Dimethylamino)methylene]amino]-3-pyridinol methylcarbamate]			12.6 µM
